Assay results: paper PMC5642494 (Oncotarget, 2017)
Like-named read-outs stand apart in the source and are kept apart here.

How the values were obtained:
pRb (Ser780) = assay: High content imaging of Rb phosphorylation (Ser780), EFM-19; assay type: cell-based; conditions: Homo sapiens, 16 hours, mean ± Stdev n = 2
Method: (§1) Relative IC50/EC50 values were determined by curve fitting to a four parameter logistic equation: Y = bottom + ((top-bottom)/ (1+exp(HillSlope*(X – LnIC50)), where X is the natural log of dose/concentration, Y is response, decreasing as X increases, top and bottom are plateaus in the same units as Y, lnIC50 is the natural log of potency, in the same log units as X, and HillSlope measures the steepness of the curve. Data were plotted using GraphPad Prism.
As controls, cells were treated with 10 µM palbociclib or vehicle ( 0.2 % v/v DMSO). Additional details for cell-based assays are provided in the Supplemental Methods. […]
(§2) www.impactjournals.com/oncotarget/ Oncotarget Supplementary Materials
(§3) Preclinical characterization of abemaciclib in hormone receptor […]
METHODS High content imaging cell-based assays for monitoring phosphorylation of Rb (ser780), G1 arrest and
Enzyme kinetics of CDK6/cyclin D3 complexes Cells were fixed with para-formaldehyde and Rb phosphorylation at Serine 780 was detected using CDK6/cyclin D3 activity was measured by the a primary mouse anti-Rb (PS780) antibody followed phosphorylation of CTRF using [g-33P] […] Plates were read in an kinase buffer containing 68 mM Hepes at pH 7.5, 6.67 mM Acumen Explorer eX3 (TTP Labtech). […]
(EDTA) was used to determine the level of background evaluated by measuring PI signal using high content 33P in the absence of enzyme activity. […]

MDA-MB-361 cells = assay: PI high content imaging of G1 arrest and cell proliferation, MDA-MB-361; assay type: cell-based; conditions: Homo sapiens, at least 2 DT
Method: as §1, with “Prism. […]” for “Prism.”
as §2, §3
Enzyme kinetics of CDK6/cyclin D3 complexes Cells were fixed with para-formaldehyde and Rb phosphorylation at Serine 780 was detected using CDK6/cyclin D3 activity was measured by the a primary mouse anti-Rb (PS780) antibody followed phosphorylation of CTRF using [g-33P] […] Plates were read in an kinase buffer containing 68 mM Hepes at pH 7.5, 6.67 mM Acumen Explorer eX3 (TTP Labtech). […] 10µL of CDK6/cyclin corresponding to 500-530 nm and the percentage of D3 enzyme complex (Millipore 14-519, #D13BP009NA) cells with pRb signal relative to the total PI stained (1 nM final concentration in the assay) was added onto subpopulation was calculated by the instrument’s software a mix of substrate and test compound. […]

ZR-75-1 xenograft = ZR-75-1 xenograft efficacy in NOD SCID mice; assay type: in vivo, mouse
Method: Control animals were treated with vehicle (1% HEC/ 25 mM phosphate buffer, pH = 2) using the same schedule of dosing. The red bar just above the X-axis illustrates the duration of the treatment period. Tumor volume measurements were taken routinely during the course of the study and are plotted as mean +/- SEM versus days following tumor cell implantation. (B) Body weights were recorded routinely during the course of the study and are plotted as mean % change (+/– SEM) relative to the mean body weight recorded on the day just prior to the first day of dosing (baseline day = 27). (C) The waterfall plots indicate the relative tumor volumes for individual animals which were determined at the end of the dosing period (study day 55). […] Growth inhibition is observed in those instances where the calculated changes in %DT/C are less than 100% whereby greater inhibition results in smaller %DT/C values. Change in %DT/C values that are less than zero indicate regressions whereby the tumor volumes on day 55 are smaller than the baseline tumor volume measured on the day prior to the initiation of dosing (baseline day = day 27). […] The tumor volumes measured on day 27 served as the baseline volumes for the calculation of %DT/C. […] Potential CDK9 inhibition was assessed by measuring the expression of MCL1 or phosphorylation of serine 2 on the C-terminal domain repeat on RNA polymerase II (pCTD). […]

`CCN1CCN(Cc2ccc(Nc3ncc(F)c(-c4cc(F)c5nc(C)n(C(C)C)c5c4)n3)nc2)CC1` [abemaciclib, Abemaciclib] gave an IC50 (pRb (Ser780)) of 12 ± 11 nM, an IC50 (MDA-MB-361 cells; n = 2, read-out: IC50 2n (G1 arrest)) of 38 ± 2 nM and an IC50 (MDA-MB-361 cells; n = 2, read-out: IC50 Cell number) of 45 ± 14 nM. For the same compound, the tumor volume (ZR-75-1 xenograft; 75 mg/kg PO QDx28, NOD SCID mice, ZR-75-1 xenograft) was “measured reduction in tumor volume (regression)” and the anti-tumor activity (ZR-75-1 xenograft; 50 or 75 mg/kg PO QDx28, single agent) was “Dose-dependent anti-tumor activity”.
